Measured values as given in patent US6737383B1, “Herbicidal oxadiazolidines” (priority 1999, dated 2004).

How the values were obtained:
soybean = assay: Test B pre/postemergence soybean; format: in vivo, Glycine max
How it was run: (§1)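 Herbicidal effect was estimated by eye on a ten-point control scale after plants spent twelve to sixteen days in a greenhouse following soil or foliar treatment. Foliar sprays targeted plants at one to four leaves; all doses were formulated in a non-phytotoxic solvent with surfactant.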

surinam grass = assay: Test B pre/postemergence surinam grass; format: in vivo, Brachiaria decumbens
How it was run: as §1

rape = assay: Test B pre/postemergence rape; format: in vivo, Brassica napus
How it was run: as §1

wild oat = assay: Test B pre/postemergence wild oat; format: in vivo, Avena fatua
How it was run: as §1

morningglory = assay: Test B pre/postemergence morningglory; format: in vivo, Ipomoea hederacea
How it was run: as §1

bedstraw = assay: Test B pre/postemergence bedstraw; format: in vivo, Galium aparine
How it was run: as §1

velvetleaf = assay: Test B pre/postemergence velvetleaf; format: in vivo, Abutilon theophrasti
How it was run: as §1

blackgrass = assay: Test B pre/postemergence blackgrass; format: in vivo, Alopecurus myosuroides
How it was run: as §1

giant foxtail = assay: Test B pre/postemergence giant foxtail; format: in vivo, Setaria faberii
How it was run: as §1

pigweed = assay: Test B pre/postemergence pigweed; format: in vivo, Amaranthus retroflexus
How it was run: as §1

sugar beet = assay: Test B pre/postemergence sugar beet; format: in vivo, Beta vulgaris
How it was run: as §1

crabgrass = assay: Test B pre/postemergence crabgrass; format: in vivo, Digitaria sanguinalis
How it was run: as §1

purple nutsedge = assay: Test B pre/postemergence purple nutsedge; format: in vivo, Cyperus rotundus
How it was run: as §1

cocklebur = assay: Test B pre/postemergence cocklebur; format: in vivo, Xanthium strumarium
How it was run: as §1

wheat = assay: Test B pre/postemergence wheat; format: in vivo, Triticum aestivum
How it was run: as §1

corn = assay: Test B pre/postemergence corn; format: in vivo, Zea mays
How it was run: as §1

[1] = Postemergence, Rate 62 g/ha, scale of 0 to 10, 0 is no effect, 10 is complete control
[2] = Postemergence, Rate 500 g/ha, scale 0 to 10, 0 is no effect, 10 is complete control
[3] = Preemergence, Rate 62 g/ha, scale 0 to 10 (0 no effect, 10 complete control)
[4] = Preemergence, Rate 125 g/ha, scale 0 to 10, 0 is no effect, 10 is complete control
[5] = Preemergence, Rate 500 g/ha, scale of 0 to 10 where 0 is no effect and 10 is complete control
[6] = Rate 250 g/ha, Postemergence, scale of 0 to 10 where 0 is no effect and 10 is complete control
[7] = Postemergence, Rate 125 g/ha, scale 0 to 10, 0 is no effect, 10 is complete control

CC(C)N(C(=O)n1oc(=O)n(CCC(F)(F)F)c1=O)c1ccc(Cl)cc1 [Compound 554]
Soybean plant response rating (soybean; [1]): 2
Plant response rating, Soybean (soybean; [2]): 3
Soybean plant response rating (soybean; [3]): 0
Soybean plant response rating (soybean; [4]): 0
Soybean plant response rating (0 to 10 scale) (soybean; Preemergence, Rate 250 g/ha): 3
Soybean plant response rating (soybean; [5]): 3
Plant response rating, Soybean (soybean; [6]): 3
B. signalgrass plant response rating (surinam grass; [1]): 0
B. signalgrass plant response rating (surinam grass; [7]): 0
Plant response rating, B. signalgrass (surinam grass; [2]): 3
B. signalgrass plant response rating (surinam grass; [3]): 7
B. signalgrass plant response rating (surinam grass; [4]): 7
B. signalgrass plant response rating (0 to 10 scale, 0 is no effect, 10 is complete control) (surinam grass; Preemergence, Rate 250 g/ha): 6
B. signalgrass plant response rating (surinam grass; [5]): 10
Plant response rating, B. signalgrass (surinam grass; [6]): 0
Rape plant response rating (rape; [1]): 0
Rape plant response rating (rape; [7]): 0
Plant response rating, Rape (rape; [2]): 3
Rape plant response rating (rape; [3]): 0
Rape plant response rating (rape; [4]): 0
Rape plant response rating (0 to 10 scale) (rape; Preemergence, Rate 250 g/ha): 0
Rape plant response rating (rape; [5]): 3
Plant response rating, Rape (rape; [6]): 0
Wild oats plant response rating (wild oat; [1]): 0
Wild oats plant response rating (wild oat; [3]): 0
Wild oats plant response rating (wild oat; [4]): 2
Wild oats plant response rating (0 to 10 scale) (wild oat; Preemergence, Rate 250 g/ha): 2
Wild oats plant response rating (wild oat; [5]): 9
Plant response rating, Wild oats (wild oat; [6]): 2
Morningglory plant response rating (morningglory; [1]): 1
Morningglory plant response rating (morningglory; [7]): 2
Plant response rating, Morningglory (morningglory; [2]): 7
Morningglory plant response rating (morningglory; [4]): 0
Morningglory plant response rating (0 to 10 scale) (morningglory; Preemergence, Rate 250 g/ha): 0
Morningglory plant response rating (morningglory; [5]): 0
Plant response rating, Morningglory (morningglory; [6]): 5
Bedstraw plant response rating (bedstraw; [1]): 5
Bedstraw plant response rating (bedstraw; [7]): 5
Plant response rating, Bedstraw (bedstraw; [2]): 9
Bedstraw plant response rating (bedstraw; [3]): 0
Bedstraw plant response rating (bedstraw; [4]): 0
Bedstraw plant response rating (0 to 10 scale) (bedstraw; Preemergence, Rate 250 g/ha): 0
Bedstraw plant response rating (bedstraw; [5]): 0
Plant response rating, Bedstraw (bedstraw; [6]): 7
Velvetleaf plant response rating (velvetleaf; [1]): 0
Plant response rating, Velvetleaf (velvetleaf; [2]): 0
Velvetleaf plant response rating (velvetleaf; [3]): 0
Velvetleaf plant response rating (velvetleaf; [4]): 0
Velvetleaf plant response rating (0 to 10 scale) (velvetleaf; Preemergence, Rate 250 g/ha): 0
Velvetleaf plant response rating (velvetleaf; [5]): 0
Plant response rating, Velvetleaf (velvetleaf; [6]): 0
Blackgrass plant response rating (blackgrass; [1]): 0
Blackgrass plant response rating (blackgrass; [7]): 3
Blackgrass plant response rating (blackgrass; [4]): 4
Blackgrass plant response rating (0 to 10 scale) (blackgrass; Preemergence, Rate 250 g/ha): 4
Blackgrass plant response rating (blackgrass; [5]): 7
Plant response rating, Blackgrass (blackgrass; [6]): 7
Giant foxtail plant response rating (giant foxtail; [1]): 2
Giant foxtail plant response rating (giant foxtail; [7]): 6
Plant response rating, Giant foxtail (giant foxtail; [2]): 8
Giant foxtail plant response rating (giant foxtail; [3]): 9
Giant foxtail plant response rating (giant foxtail; [4]): 9
Giant foxtail plant response rating (0 to 10 scale) (giant foxtail; Preemergence, Rate 250 g/ha): 9
Giant foxtail plant response rating (giant foxtail; [5]): 10
Plant response rating, Giant foxtail (giant foxtail; [6]): 8
Redroot pigweed plant response rating (pigweed; [1]): 0
Redroot pigweed plant response rating (pigweed; [3]): 9
Redroot pigweed plant response rating (pigweed; [5]): 10
Plant response rating, Redroot pigweed (pigweed; [6]): 7
Sugarbeets plant response rating (sugar beet; [1]): 0
Sugarbeets plant response rating (sugar beet; [3]): 0
Sugarbeets plant response rating (sugar beet; [4]): 0
Sugarbeets plant response rating (0 to 10 scale) (sugar beet; Preemergence, Rate 250 g/ha): 0
Sugarbeets plant response rating (sugar beet; [5]): 6
Plant response rating, Sugarbeets (sugar beet; [6]): 7
Crabgrass plant response rating (crabgrass; [1]): 0
Plant response rating, Crabgrass (crabgrass; [2]): 9
Crabgrass plant response rating (crabgrass; [3]): 9
Crabgrass plant response rating (crabgrass; [4]): 10
Crabgrass plant response rating (crabgrass; [5]): 10
Plant response rating, Crabgrass (crabgrass; [6]): 9
Nutsedge plant response rating (purple nutsedge; [1]): 0
Nutsedge plant response rating (purple nutsedge; [7]): 0
Plant response rating, Nutsedge (purple nutsedge; [2]): 0
Nutsedge plant response rating (purple nutsedge; [3]): 0
Nutsedge plant response rating (purple nutsedge; [4]): 0
Nutsedge plant response rating (0 to 10 scale) (purple nutsedge; Preemergence, Rate 250 g/ha): 0
Nutsedge plant response rating (purple nutsedge; [5]): 0
Plant response rating, Nutsedge (purple nutsedge; [6]): 0
Cocklebur plant response rating (cocklebur; [1]): 0
Cocklebur plant response rating (cocklebur; [7]): 0
Plant response rating, Cocklebur (cocklebur; [2]): 3
Cocklebur plant response rating (cocklebur; [3]): 0
Cocklebur plant response rating (cocklebur; [4]): 0
Cocklebur plant response rating (0 to 10 scale) (cocklebur; Preemergence, Rate 250 g/ha): 0
Cocklebur plant response rating (cocklebur; [5]): 0
Plant response rating, Cocklebur (cocklebur; [6]): 0
Wheat plant response rating (wheat; [1]): 0
Wheat plant response rating (wheat; [3]): 3
Wheat plant response rating (wheat; [4]): 3
Wheat plant response rating (wheat; [5]): 6
Plant response rating, Wheat (wheat; [6]): 2
Corn plant response rating (corn; [1]): 0
Corn plant response rating (corn; [7]): 0
Plant response rating, Corn (corn; [2]): 0
Corn plant response rating (corn; [3]): 0
Corn plant response rating (corn; [4]): 0
Corn plant response rating (0 to 10 scale) (corn; Preemergence, Rate 250 g/ha): 0
Corn plant response rating (corn; [5]): 2
Plant response rating, Corn (corn; [6]): 0
